pIC50: −log10 of the molar value.
Test system: K24384-001-R-PDC complex spheroids, viability
Experiment: Anticancer human tumor K24384-001-R-PDC patient-derived pancreatic adenocarcinoma cell line growth inhibition [GQUAD]
Conditions: for pIC50: curve of first compound; for viability, T/C: stronger effect = lower value
Source text: DNA G-quadruplex Stabilizer Agents in Combinations in Complex Spheroids
A high-throughput screen of multi-cell type tumor spheroids was designed to identify active combinations of DNA G-quadruplex stabilizer agents and targeted small molecules. Complex spheroids include a stromal component modeled by human endothelial cells (HUVEC) and fibroblasts modeled by human mesenchymal stem cells (MSCs). The concentration ranges selected for each drug and investigational agent were based upon clinically achievable concentrations if the clinical Cmax of the agent was known.
Compounds. The drugs and investigational agents: pidnarulex (CX-5461; NSC782164), APTO-253 (NSC789042), BRACO-19 (NSC847499), peposertib (NSC802822), ceralasertib (NSC780249), elimusertib (NSC800525), camonsertib (NSC841442), AZD-1390 (NSC803789), olaparib (NSC753686), talazoparib (NSC767125), ART-558 (NSC835418), sotorasib (NSC818433), MRTX-1133 (NSC836407), SN-38 (NSC673596), topotecan (NSC609699), etoposide (NSC141540), doxorubicin (NSC123127), gemcitabine (NSC613327), 5-fluorouracil (NSC19893), paclitaxel (NSC125973), vemurafenib (NSC761431), panobinostat (NSC761190), R-306465 (JNJ-16241199; NSC773264), adavosertib (NSC754352), TP-3654 (NSC805149), carboplatin (NSC241240), KSQ-4279 (NSC840948), and staurosporine (NSC755774) were obtained from the National Cancer Institute (NCI) Developmental Therapeutics Program Chemical Repository (34). The FDA-approved anticancer drug set is available from the NCI Developmental Therapeutics Program. […] The stock solutions were prepared in dimethyl sulfoxide (DMSO, Sigma-Aldrich, St. Louis, MO, cat. D2650) at 800-fold the tested concentration and stored at -70 degrees C prior to their use. All drugs and investigational agents were tested over a range starting from a high concentration at or near the clinical Cmax and decreasing in half-log increments. If the clinical Cmax for an agent had not been determined, the highest concentration tested was 10 microM.
2.3 Cell Culture. All cells were maintained in an incubator at 37 degrees C and 5% CO2 with 95% humidity. The PDC lines were cultured according to standard operating procedures established by the NCI PDMR. All PDCs were thawed and cultured in Matrigel-coated flasks prepared with a working solution of 1X Ham's F-12 nutrient mix, without supplementation (Invitrogen, cat. 11765054), 100 U/mL penicillin-streptomycin (Invitrogen, cat. 15140122), and 2.5% Matrigel (Corning Inc., cat. 354248) for the first three passages. The 857933-349-R-J2-PDC line was cultured in 6C/Colon 1B media, which includes advanced DMEM/F-12 (Thermo Fisher Scientific, cat. 12634028), 10 mM HEPES (Thermo Fisher Scientific, cat. 15630080), 1X GlutaMAX supplement (Thermo Fisher Scientific, cat. 35050061), 0.1 mg/mL primocin (InvivoGen, cat. ant-pm-2), 10% defined fetal bovine serum, heat inactivated (HyClone Laboratories Inc., cat. SH30070.03HI), 50% L-WRN conditioned media (ATCC, cat. CRL-3276), 1.25 mM N-Acetyl-L-cysteine (Sigma-Aldrich, cat. A9165), 10 mM nicotinamide (Sigma-Aldrich, cat. N0636), 1X B-27 supplement (Thermo Fisher Scientific, cat. 17504044), 1X N-2 supplement (Thermo Fisher Scientific, cat. 17502048), 10 microM Y-27632 dihydrochloride (Tocris Bioscience, cat. 1254), and 50 ng/mL human EGF recombinant protein (Thermo Fisher Scientific, cat. PHG0311). The 485176-168-R4-J1-PDC line was cultured in Panc media, which includes all 6C/Colon 1B media components plus 100 ng/mL human FGF-10 (Thermo Fisher Scientific, cat. 100-26), 500 nM SB-431542 (Selleckchem, cat. S1067), and gastrin (Tocris, cat. 3006).
[…]

[1] = second compound 0.0316 µM, first compound 0.0316 µM
[2] = second compound 0.0316 µM, first compound 0.1 µM
[3] = second compound 0.0316 µM, first compound 0.316 µM
[4] = second compound 0.0316 µM, first compound 1 µM
[5] = second compound 0.0316 µM, first compound 3.16 µM
[6] = second compound 0.0316 µM, first compound 10 µM
[7] = second compound 0.1 µM, first compound 0.0316 µM
[8] = second compound 0.1 µM, first compound 0.1 µM
[9] = second compound 0.1 µM, first compound 0.316 µM
[10] = second compound 0.1 µM, first compound 1 µM
[11] = second compound 0.1 µM, first compound 3.16 µM
[12] = second compound 0.1 µM, first compound 10 µM
[13] = second compound 0.316 µM, first compound 0.0316 µM
[14] = second compound 0.316 µM, first compound 0.1 µM
[15] = second compound 0.316 µM, first compound 0.316 µM
[16] = second compound 0.316 µM, first compound 1 µM
[17] = second compound 0.316 µM, first compound 3.16 µM
[18] = second compound 0.316 µM, first compound 10 µM
[19] = second compound 1 µM, first compound 0.0316 µM
[20] = second compound 1 µM, first compound 0.1 µM
[21] = second compound 1 µM, first compound 0.316 µM
[22] = second compound 1 µM, first compound 1 µM
[23] = second compound 1 µM, first compound 3.16 µM
[24] = second compound 1 µM, first compound 10 µM
[25] = second compound 3.16 µM, first compound 0.0316 µM
[26] = second compound 3.16 µM, first compound 0.1 µM
[27] = second compound 3.16 µM, first compound 0.316 µM
[28] = second compound 3.16 µM, first compound 1 µM
[29] = second compound 3.16 µM, first compound 3.16 µM
[30] = second compound 3.16 µM, first compound 10 µM
[31] = second compound 10 µM, first compound 0.0316 µM
[32] = second compound 10 µM, first compound 0.1 µM
[33] = second compound 10 µM, first compound 0.316 µM
[34] = second compound 10 µM, first compound 1 µM
[35] = second compound 10 µM, first compound 3.16 µM
[36] = second compound 10 µM, first compound 10 µM
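Also: spheroids exposed to compounds for seven days.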

## COc1cc(C2c3cc4c(cc3C(OC3OC5COC(C)OC5C(O)C3O)C3COC(=O)C23)OCO4)cc(OC)c1O (centres undefined) + CN(C)c1ccc(Nc2c3ccc(NC(=O)CCN4CCCC4)cc3nc3cc(NC(=O)CCN4CCCC4)ccc23)cc1
Second compound 0.0316 µM
  pIC50: 6.02
Second compound 0.1 µM
  pIC50: 6.08
Second compound 0.316 µM
  pIC50: 6.12
Second compound 1 µM
  pIC50: 6.09
Second compound 3.16 µM
  pIC50: 6.18
Second compound 10 µM
  pIC50: 6.15
[1]
  viability, T/C: 105%
[2]
  viability, T/C: 87.1%
[3]
  viability, T/C: 79.1%
[4]
  viability, T/C: 46%
[5]
  viability, T/C: 36.7%
[6]
  viability, T/C: 37.5%
[7]
  viability, T/C: 92%
[8]
  viability, T/C: 99.7%
[9]
  viability, T/C: 76.8%
[10]
  viability, T/C: 46.3%
[11]
  viability, T/C: 40.2%
[12]
  viability, T/C: 41.4%
[13]
  viability, T/C: 94.9%
[14]
  viability, T/C: 91%
[15]
  viability, T/C: 76.1%
[16]
  viability, T/C: 40.9%
[17]
  viability, T/C: 45.3%
[18]
  viability, T/C: 39.5%
[19]
  viability, T/C: 93.2%
[20]
  viability, T/C: 95.3%
[21]
  viability, T/C: 81.2%
[22]
  viability, T/C: 42.9%
[23]
  viability, T/C: 43%
[24]
  viability, T/C: 38.5%
[25]
  viability, T/C: 93.8%
[26]
  viability, T/C: 104%
[27]
  viability, T/C: 67.7%
[28]
  viability, T/C: 46.8%
[29]
  viability, T/C: 36.9%
[30]
  viability, T/C: 37.2%
[31]
  viability, T/C: 94.3%
[32]
  viability, T/C: 105%
[33]
  viability, T/C: 60.9%
[34]
  viability, T/C: 59.1%
[35]
  viability, T/C: 30.8%
[36]
  viability, T/C: 46.3%

## COc1cccc2c1C(=O)c1c(O)c3c(c(O)c1C2=O)CC(O)(C(=O)CO)CC3OC1CC(N)C(O)C(C)O1 (centres undefined) + CN(C)c1ccc(Nc2c3ccc(NC(=O)CCN4CCCC4)cc3nc3cc(NC(=O)CCN4CCCC4)ccc23)cc1
Second compound 0.0316 µM
  pIC50: 6.67
Second compound 0.1 µM
  pIC50: 6.74
Second compound 0.316 µM
  pIC50: 6.92
Second compound 1 µM
  pIC50: 6.83
Second compound 3.16 µM
  pIC50: 6.77
Second compound 10 µM
  pIC50: 6.61
[1]
  viability, T/C: 94.6%
[2]
  viability, T/C: 57.3%
[3]
  viability, T/C: 54.4%
[4]
  viability, T/C: 18.4%
[5]
  viability, T/C: 4.88%
[6]
  viability, T/C: 3.9%
[7]
  viability, T/C: 92.5%
[8]
  viability, T/C: 63.3%
[9]
  viability, T/C: 38.2%
[10]
  viability, T/C: 19.1%
[11]
  viability, T/C: 5.65%
[12]
  viability, T/C: 3.5%
[13]
  viability, T/C: 79.4%
[14]
  viability, T/C: 51.2%
[15]
  viability, T/C: 35.3%
[16]
  viability, T/C: 20.8%
[17]
  viability, T/C: 6.33%
[18]
  viability, T/C: 4.16%
[19]
  viability, T/C: 90.7%
[20]
  viability, T/C: 53.8%
[21]
  viability, T/C: 39.3%
[22]
  viability, T/C: 20.4%
[23]
  viability, T/C: 5.66%
[24]
  viability, T/C: 4.15%
[25]
  viability, T/C: 83.2%
[26]
  viability, T/C: 56.4%
[27]
  viability, T/C: 39.2%
[28]
  viability, T/C: 29.3%
[29]
  viability, T/C: 5.72%
[30]
  viability, T/C: 5.1%
[31]
  viability, T/C: 80.9%
[32]
  viability, T/C: 101%
[33]
  viability, T/C: 38%
[34]
  viability, T/C: 35%
[35]
  viability, T/C: 9.76%
[36]
  viability, T/C: 2.73%

From PubChem BioAssay AID2060483 (Molecular Pharmacology Branch, DTP, NCI, 2025)
